Marks after values point to notes of the source that are not given here.
test system: Rabbit Psoas myofibrils (skeletal myosin ATPase); test: Myofibril ATPase assay, rabbit psoas (skeletal) myofibrils; format: biochemical; conditions: Y75 value (no ‡ mark); rabbit psoas myofibrils
In short: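 Values derive from concentration–response fits of NADH consumption rates at 340 nm, normalized to vehicle-only wells, as Y75 or Y125. Myofibril ATP turnover was linked to NADH via PK/LDH in Ca/EGTA-buffered PIPES, pH 7.0, and read over 75 min.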

Row | SMILES | Skeletal EC25
1 | C[C@@H](NC(=O)Cc1c(C2CC2)c2c(F)c(F)ccc2[nH]c1=O)c1ccc(C#N)cn1 [compound 25] | 1.68 µM

same assay, conditions: rabbit psoas myofibrils; Y75 value

Row | SMILES | Skeletal EC25
2 | C#Cc1nccc2[nH]c(=O)c(CC(=O)N[C@@H](C)c3cnc(N=[N+]=[N-])cc3C)c(C)c12 [compound 488] | 1.15 µM
3 | Cc1c(CC(=O)N[C@@H](C)c2ccc(C#N)cc2F)c(=O)[nH]c2cnnc(C#N)c12 [compound 172] | 0.04 µM
4 | Cc1nccc2[nH]c(=O)c(CC(=O)N[C@@H](C)c3c(F)cc(F)cc3F)c(C)c12 [compound 500] | 2.3 µM
5 | Cc1nccc2[nH]c(=O)c(C3(C(=O)N[C@@H](C)c4ncc(C#N)cc4F)CC3)c(C)c12 (single isomer, unassigned) [compound 3507] | 100.00 µM
6 | Cc1nccc2[nH]c(=O)c(CC(=O)N[C@@H](C)c3ccc(C#N)cc3F)c(F)c12 [compound 149] | 0.02 µM
7 | Cc1nccc2[nH]c(=O)c(CC(=O)N[C@@H](CO)c3ccccn3)c(C)c12 (single isomer, unassigned) [compound 317] | 100.00 µM
8 | Cc1nccc2[nH]c(=O)c(CC(=O)N[C@@H]3CCc4cc(C#N)cnc43)c(C)c12 (single isomer, unassigned) [compound 233] | 5.72 µM
9 | Cc1c(CC(=O)N[C@H](CO)c2ccc(F)cc2F)c(=O)[nH]c2ccnc(C#N)c12 [compound 229] | 4.20 µM
10 | C[C@@H](NC(=O)Cc1c(C2CC2)c2cnccc2[nH]c1=O)c1ccc(C#N)cn1 [compound 140] | 42.18 µM
11 | Cc1nccc2[nH]c(=O)c(CC(=O)N[C@H](C)c3ncc(F)cc3F)c(C)c12 (single isomer, unassigned) [compound 378] | 3.18 µM
12 | Cc1nccc2[nH]c(=O)c(CC(=O)N[C@H](CO)c3cccnc3)c(C)c12 (single isomer, unassigned) [compound 311] | 100.00 µM
13 | Cc1nccc2[nH]c(=O)c(C3(C(=O)N[C@@H](C)c4ccc(C#N)cc4F)CC3)c(C)c12 (single isomer, unassigned) [compound 3512] | 0.71 µM
14 | Cc1c([C@H](C)C(=O)N[C@@H](C)c2ccc(F)cc2F)c(=O)[nH]c2ccnc(F)c12 (single isomer, unassigned) [compound 375] | 0.17 µM
15 | Cc1c(CC(=O)N[C@@H](CO)c2ncc(F)cc2F)c(=O)[nH]c2ccnc(C#N)c12 [compound 262] | 0.13 µM
16 | Cc1c(CC(=O)N[C@@H](CO)c2ccc(F)cc2F)c(=O)[nH]c2ccnc(C(F)(F)F)c12 [compound 232] | 0.02 µM
17 | Cc1cc(F)ccc1[C@H](C)NC(=O)Cc1c(C)c2c(C)nccc2[nH]c1=O [compound 407] | 0.02 µM
18 | Cc1c(CC(=O)N[C@H](C)c2ncc(C#N)cc2F)c(=O)[nH]c2ccc(O)nc12 [compound 165] | 47.80 µM
19 | Cc1nccc2[nH]c(=O)c(CC(=O)N[C@H]3CCc4cc(C#N)cnc43)c(C)c12 (single isomer, unassigned) [compound 234] | 20.28 µM

test system: Porcine atria myofibrils (atrial myosin ATPase); test: Myofibril ATPase assay, porcine atria myofibrils; format: biochemical; conditions: Y75 value (no ‡ mark); porcine atria myofibrils
In short: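 Atrial myofibril ATPase measured by NADH-coupled absorbance at 340 nm; vehicle-normalized slopes fitted to give Y75 or Y125 values.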

Row | SMILES | Atrial EC25
20 | C[C@@H](NC(=O)Cc1c(C2CC2)c2c(F)c(F)ccc2[nH]c1=O)c1ccc(C#N)cn1 [compound 25] | 100.00 µM

same assay, conditions: porcine atria myofibrils; Y75 value (75% activity relative to no compound)

Row | SMILES | Atrial EC25
21 | C#Cc1nccc2[nH]c(=O)c(CC(=O)N[C@@H](C)c3cnc(N=[N+]=[N-])cc3C)c(C)c12 [compound 488] | 12.56 µM
22 | Cc1c(CC(=O)N[C@@H](C)c2ccc(C#N)cc2F)c(=O)[nH]c2cnnc(C#N)c12 [compound 172] | 0.10 µM
23 | Cc1nccc2[nH]c(=O)c(CC(=O)N[C@@H](C)c3c(F)cc(F)cc3F)c(C)c12 [compound 500] | 43 µM
24 | Cc1nccc2[nH]c(=O)c(C3(C(=O)N[C@@H](C)c4ncc(C#N)cc4F)CC3)c(C)c12 (single isomer, unassigned) [compound 3507] | 2.61 µM
25 | Cc1nccc2[nH]c(=O)c(CC(=O)N[C@@H](C)c3ccc(C#N)cc3F)c(F)c12 [compound 149] | 0.06 µM
26 | Cc1nccc2[nH]c(=O)c(CC(=O)N[C@@H](CO)c3ccccn3)c(C)c12 (single isomer, unassigned) [compound 317] | 100.00 µM
27 | Cc1nccc2[nH]c(=O)c(CC(=O)N[C@@H]3CCc4cc(C#N)cnc43)c(C)c12 (single isomer, unassigned) [compound 233] | 100.00 µM
28 | Cc1c(CC(=O)N[C@H](CO)c2ccc(F)cc2F)c(=O)[nH]c2ccnc(C#N)c12 [compound 229] | 8.21 µM
29 | C[C@@H](NC(=O)Cc1c(C2CC2)c2cnccc2[nH]c1=O)c1ccc(C#N)cn1 [compound 140] | 100.00 µM
30 | Cc1nccc2[nH]c(=O)c(CC(=O)N[C@H](C)c3ncc(F)cc3F)c(C)c12 (single isomer, unassigned) [compound 378] | 100.00 µM
31 | Cc1nccc2[nH]c(=O)c(CC(=O)N[C@H](CO)c3cccnc3)c(C)c12 (single isomer, unassigned) [compound 311] | 100.00 µM
32 | Cc1nccc2[nH]c(=O)c(C3(C(=O)N[C@@H](C)c4ccc(C#N)cc4F)CC3)c(C)c12 (single isomer, unassigned) [compound 3512] | 1.65 µM
33 | Cc1c([C@H](C)C(=O)N[C@@H](C)c2ccc(F)cc2F)c(=O)[nH]c2ccnc(F)c12 (single isomer, unassigned) [compound 375] | 0.27 µM
34 | Cc1c(CC(=O)N[C@@H](CO)c2ncc(F)cc2F)c(=O)[nH]c2ccnc(C#N)c12 [compound 262] | 0.19 µM
35 | Cc1c(CC(=O)N[C@@H](CO)c2ccc(F)cc2F)c(=O)[nH]c2ccnc(C(F)(F)F)c12 [compound 232] | 0.47 µM
36 | Cc1cc(F)ccc1[C@H](C)NC(=O)Cc1c(C)c2c(C)nccc2[nH]c1=O [compound 407] | 0.10 µM
37 | Cc1c(CC(=O)N[C@H](C)c2ncc(C#N)cc2F)c(=O)[nH]c2ccc(O)nc12 [compound 165] | 2.77 µM
38 | Cc1nccc2[nH]c(=O)c(CC(=O)N[C@H]3CCc4cc(C#N)cnc43)c(C)c12 (single isomer, unassigned) [compound 234] | 100.00 µM

molecular target: T1, Porcine ventricle myofibrils (ventricular myosin ATPase) (Sus scrofa, UniProt P79293); test: Myofibril ATPase assay, porcine ventricle myofibrils; format: biochemical, porcine (Yucatan minipigs); conditions: Y75 value (no ‡ mark); porcine ventricle myofibrils
T1 construct: Myofibrils from porcine cardiac muscle was isolated from the left ventricle of Yucatan minipigs; tissue Exemplar Genetics; host or cells: left ventricle of Yucatan minipigs, myofibrils prepared in house
T1 sequence (P79293 whole entry): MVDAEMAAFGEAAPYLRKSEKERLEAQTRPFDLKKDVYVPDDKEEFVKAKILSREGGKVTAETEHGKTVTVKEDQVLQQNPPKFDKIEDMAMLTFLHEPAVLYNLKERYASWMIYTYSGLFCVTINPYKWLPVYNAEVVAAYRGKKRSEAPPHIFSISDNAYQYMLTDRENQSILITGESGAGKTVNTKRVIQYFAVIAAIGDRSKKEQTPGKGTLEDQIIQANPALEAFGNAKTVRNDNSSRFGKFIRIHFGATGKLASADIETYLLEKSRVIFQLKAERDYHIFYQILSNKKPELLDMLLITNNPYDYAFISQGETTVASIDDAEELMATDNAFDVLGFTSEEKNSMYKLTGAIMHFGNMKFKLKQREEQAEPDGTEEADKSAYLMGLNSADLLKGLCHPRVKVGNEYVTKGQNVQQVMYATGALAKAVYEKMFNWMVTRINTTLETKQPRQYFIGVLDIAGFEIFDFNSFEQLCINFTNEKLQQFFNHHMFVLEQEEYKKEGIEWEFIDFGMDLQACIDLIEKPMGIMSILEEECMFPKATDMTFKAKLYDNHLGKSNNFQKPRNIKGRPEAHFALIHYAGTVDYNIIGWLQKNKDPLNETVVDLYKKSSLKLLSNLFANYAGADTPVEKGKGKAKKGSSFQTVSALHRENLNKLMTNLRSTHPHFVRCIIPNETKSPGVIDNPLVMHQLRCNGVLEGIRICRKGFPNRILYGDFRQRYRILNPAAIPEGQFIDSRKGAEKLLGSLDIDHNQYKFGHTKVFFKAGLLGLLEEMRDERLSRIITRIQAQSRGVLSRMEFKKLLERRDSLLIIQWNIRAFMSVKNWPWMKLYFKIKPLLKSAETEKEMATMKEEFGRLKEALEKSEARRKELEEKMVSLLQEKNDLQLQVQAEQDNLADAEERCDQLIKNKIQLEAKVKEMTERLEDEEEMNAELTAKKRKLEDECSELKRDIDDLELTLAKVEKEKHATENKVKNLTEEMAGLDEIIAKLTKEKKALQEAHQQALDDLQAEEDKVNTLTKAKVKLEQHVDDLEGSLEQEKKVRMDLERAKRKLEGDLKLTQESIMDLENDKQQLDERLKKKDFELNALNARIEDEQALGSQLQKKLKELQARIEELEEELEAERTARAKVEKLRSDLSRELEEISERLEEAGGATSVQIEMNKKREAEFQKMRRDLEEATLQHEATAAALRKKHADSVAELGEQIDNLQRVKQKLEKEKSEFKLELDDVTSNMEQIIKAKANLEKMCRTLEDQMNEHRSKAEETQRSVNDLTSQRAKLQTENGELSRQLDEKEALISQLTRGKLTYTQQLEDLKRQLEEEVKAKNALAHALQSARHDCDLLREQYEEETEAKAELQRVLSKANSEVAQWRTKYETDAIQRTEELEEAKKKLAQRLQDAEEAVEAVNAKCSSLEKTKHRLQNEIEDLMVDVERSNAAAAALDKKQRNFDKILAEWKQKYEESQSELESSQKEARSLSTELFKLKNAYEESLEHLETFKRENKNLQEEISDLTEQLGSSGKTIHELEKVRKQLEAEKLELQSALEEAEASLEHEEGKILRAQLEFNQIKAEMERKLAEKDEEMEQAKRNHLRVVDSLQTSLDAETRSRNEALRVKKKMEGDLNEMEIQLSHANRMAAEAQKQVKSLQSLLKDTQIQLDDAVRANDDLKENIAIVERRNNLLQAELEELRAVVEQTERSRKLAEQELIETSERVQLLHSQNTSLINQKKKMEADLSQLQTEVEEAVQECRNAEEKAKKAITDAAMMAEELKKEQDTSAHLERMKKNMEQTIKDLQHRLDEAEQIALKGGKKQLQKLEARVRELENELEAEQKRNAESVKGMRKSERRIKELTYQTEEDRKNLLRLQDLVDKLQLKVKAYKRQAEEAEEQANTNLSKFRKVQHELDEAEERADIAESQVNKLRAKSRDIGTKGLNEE
In short: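 Myofibrils isolated from Yucatan minipig left ventricle; coupled PK/LDH NADH assay, pCa buffer pH 7.0, kinetic A340 reads over 75 min. Vehicle-normalized slopes fit 4PL; Y75/Y125 derived.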

Row | SMILES | Ventricular EC25
39 | C[C@@H](NC(=O)Cc1c(C2CC2)c2c(F)c(F)ccc2[nH]c1=O)c1ccc(C#N)cn1 [compound 25] | 100.00 µM

same assay, conditions: porcine ventricle myofibrils; Y75 value

Row | SMILES | Ventricular EC25
40 | C#Cc1nccc2[nH]c(=O)c(CC(=O)N[C@@H](C)c3cnc(N=[N+]=[N-])cc3C)c(C)c12 [compound 488] | 4.94 µM
41 | Cc1c(CC(=O)N[C@@H](C)c2ccc(C#N)cc2F)c(=O)[nH]c2cnnc(C#N)c12 [compound 172] | 3.78 µM
42 | Cc1nccc2[nH]c(=O)c(CC(=O)N[C@@H](C)c3c(F)cc(F)cc3F)c(C)c12 [compound 500] | 70 µM
43 | Cc1nccc2[nH]c(=O)c(C3(C(=O)N[C@@H](C)c4ncc(C#N)cc4F)CC3)c(C)c12 (single isomer, unassigned) [compound 3507] | 18.82 µM
44 | Cc1nccc2[nH]c(=O)c(CC(=O)N[C@@H](C)c3ccc(C#N)cc3F)c(F)c12 [compound 149] | 0.10 µM
45 | Cc1nccc2[nH]c(=O)c(CC(=O)N[C@@H](CO)c3ccccn3)c(C)c12 (single isomer, unassigned) [compound 317] | 100.00 µM
46 | Cc1nccc2[nH]c(=O)c(CC(=O)N[C@@H]3CCc4cc(C#N)cnc43)c(C)c12 (single isomer, unassigned) [compound 233] | 100.00 µM
47 | Cc1c(CC(=O)N[C@H](CO)c2ccc(F)cc2F)c(=O)[nH]c2ccnc(C#N)c12 [compound 229] | 34.95 µM
48 | C[C@@H](NC(=O)Cc1c(C2CC2)c2cnccc2[nH]c1=O)c1ccc(C#N)cn1 [compound 140] | 100.00 µM
49 | Cc1nccc2[nH]c(=O)c(CC(=O)N[C@H](C)c3ncc(F)cc3F)c(C)c12 (single isomer, unassigned) [compound 378] | 100.00 µM
50 | Cc1nccc2[nH]c(=O)c(CC(=O)N[C@H](CO)c3cccnc3)c(C)c12 (single isomer, unassigned) [compound 311] | 100.00 µM
51 | Cc1c([C@H](C)C(=O)N[C@@H](C)c2ccc(F)cc2F)c(=O)[nH]c2ccnc(F)c12 (single isomer, unassigned) [compound 375] | 4.58 µM
52 | Cc1c(CC(=O)N[C@@H](CO)c2ncc(F)cc2F)c(=O)[nH]c2ccnc(C#N)c12 [compound 262] | 0.67 µM
53 | Cc1c(CC(=O)N[C@@H](CO)c2ccc(F)cc2F)c(=O)[nH]c2ccnc(C(F)(F)F)c12 [compound 232] | 2.74 µM
54 | Cc1cc(F)ccc1[C@H](C)NC(=O)Cc1c(C)c2c(C)nccc2[nH]c1=O [compound 407] | 0.33 µM
55 | Cc1c(CC(=O)N[C@H](C)c2ncc(C#N)cc2F)c(=O)[nH]c2ccc(O)nc12 [compound 165] | 100.00 µM
56 | Cc1nccc2[nH]c(=O)c(CC(=O)N[C@H]3CCc4cc(C#N)cnc43)c(C)c12 (single isomer, unassigned) [compound 234] | 100.00 µM

same assay, conditions: porcine ventricle myofibrils; Y125 value, not a Y75 value

Row | SMILES | Ventricular EC25 (Y125 value, marked ‡)
57 | Cc1nccc2[nH]c(=O)c(C3(C(=O)N[C@@H](C)c4ccc(C#N)cc4F)CC3)c(C)c12 (single isomer, unassigned) [compound 3512] | 100.00‡ μM

From US12448369B2 (Edgewise Therapeutics, Inc., priority 2023, dated 2025)
